Biological target: T1, CpLTL (GST-CpLTL) (Cryptosporidium parvum, UniProt Q5CWG8)
T1 construct: gene cgd6_5140; lectin-leg-like domain (nucleotides 130-852 of the ORF; domain 44-284 aa of 469), without signal peptide and TM, GST fusion kept (pGEX-4T-1), E. coli Rosetta (DE3), about 48 kDa
Test: competition ELISA, immobilised GST-CpLTL, binding of horseradish peroxidase (mannose-rich glycoprotein), OD405
Settings: 100 mM mannose, 50 μg/mL HRP, PBS, 4 °C overnight; competitive with HRP glycan

T1 sequence (Q5CWG8 entry or part of it): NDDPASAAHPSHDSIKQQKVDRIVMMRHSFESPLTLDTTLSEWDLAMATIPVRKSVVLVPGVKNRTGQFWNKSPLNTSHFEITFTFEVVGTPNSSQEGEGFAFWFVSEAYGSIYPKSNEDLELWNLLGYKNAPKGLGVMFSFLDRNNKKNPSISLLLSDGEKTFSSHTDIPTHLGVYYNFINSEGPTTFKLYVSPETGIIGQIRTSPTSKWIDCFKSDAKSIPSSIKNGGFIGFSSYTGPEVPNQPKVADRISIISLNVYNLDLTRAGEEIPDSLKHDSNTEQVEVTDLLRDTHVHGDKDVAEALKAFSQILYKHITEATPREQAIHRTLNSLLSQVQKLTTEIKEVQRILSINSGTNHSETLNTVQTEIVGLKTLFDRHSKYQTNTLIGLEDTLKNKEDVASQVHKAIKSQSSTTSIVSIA

## OC[C@H]1OC(O)[C@@H](O)[C@@H](O)[C@@H]1O (stereo partly shown) [mannose]
  competition ELISA, immobilised GST-CpLTL, binding of horseradish peroxidase (man): Mannose showed competitive inhibition on the binding of HRP to GST-CpLTL protein

From publication PMC11363900, “A single-pass type I membrane protein, mannose-specific L-type lectin, potentially involved in the adhesion and invasion of Cryptosporidium parvum” (Parasite, 2024)
